Laboratory results published in PMC7699199, “Identification and Validation of Carbonic Anhydrase II as the First Target of the Anti-Inflammatory Drug Actarit” (Biomolecules, 2020).
pIC50: −log10 of the molar value.

Molecular target: T1, carbonic anhydrase II (CAII) (Homo sapiens, UniProt P00918)
T1 construct: gene CA2
Experiment: Wilbur-Anderson electrometric CO2 hydration assay with recombinant human CAII
Assay type: biochemical

CC(=O)Nc1ccc(CC(=O)O)cc1 [actarit]
pIC50: 6.37
